From patent US9180118B2, “Thiadiazolidinone derivatives” (University of Rochester, priority 2006, dated 2015)
Where a SMILES comes first, the peptide text is derived from it. The star is where a group is joined. Cbz = O=C(OCc1ccccc1)*; CH2F = FC*

How the values were obtained:
primary AML specimens = experiment: Viability of primary AML specimens, Annexin V/7-AAD flow cytometry; type: cell-based, human; settings: for Rapid kinetics: cell death kinetics; for Cytotoxic AML: primary AML specimens
Protocol: (§1) The cells were isolated and processed as described. […] All drug treatments were performed in triplicate. […] Total viable cell numbers were determined using a flow cytometric apoptosis assay as described. Briefly, after 18 h of treatment, specimens were labeled with anti-CD34-PE (Becton Dickinson, San Jose, Calif.) for 20 minutes. […] The total number of events collected was 100,000. The percent viable cells was defined as AnnexinV^neg/7-AAD^neg cells on total (ungated) cells and on gates set for CD34^+ populations. • [1] Jordan, C. T., et al., The interleukin-3 receptor alpha chain is a unique marker for human acute myelogenous leukemia stem cells. Leukemia, 2000. 14(10): p. […] Lansdorp, P. M. and W. Dragowska, Long-term erythropoiesis from constant numbers of CD34+ cells in serum-free cultures initiated with highly purified progenitor cells from human bone marrow. […] Guzman, M. L., et al., Nuclear factor-kappaB is constitutively activated in primitive human acute myelogenous leukemia cells. […] 98(8): p.

[1] = system: normal specimens (BM, CB, MPB); experiment: Viability of normal specimens (BM, CB, MPB), Annexin V/7-AAD; type: cell-based, human; settings: normal specimens
Protocol: as §1

[2] = listed as 2-chloro-1-(4,5-dibromo-thiophen-2-yl-ethanone)
[3] = pre-treated 1 h prior to 20 μM TDZD-8, viability at 24 hours

| Structure (SMILES) | Rapid kinetics (primary AML specimens) | Cytotoxic AML (primary AML specimens) | Cytotoxic Normal [1] | Cytotoxic AML (primary AML specimens; [2]) | Cytotoxic Normal [1, 2] | effect of pretreatment on cell death induced by TDZD-8 (primary AML specimens; [3]) | abrogation of TDZD-8 induced death by pan-caspase inhibitor (primary AML specimens; [3]) |
| --- | --- | --- | --- | --- | --- | --- | --- |
| O=C1Cc2c([nH]c3ccc(Br)cc23)-c2ncccc2N1 [1-Azakenpaullone] | No | No | No | – | – | – | – |
| O=c1sn(Cc2ccccc2)c(=S)n1Cc1ccccc1 [2,4-Dibenzyl-5-oxothiadiazolidine-3-thione] | No | No | No | – | – | – | – |
| O=C1CSC(=O)N1 [2,4-thiazolidinedione] | No | No | No | – | – | – | – |
| O=C(CCl)c1cc(Br)c(Br)s1 [2-Chloro-1-(4,5-dibromo-thiophen-2-yl)-ethanone] | No | Yes | Yes | could induce AML cell death | toxic to normal cells | – | – |
| O=C1NC(=O)C(=Cc2ccc3c(c2)OC(F)(F)O3)S1 [5-(2,2-Difluoro-benzo[1,3]dioxol-5-ylmethylene)-thiazolidine-2,4-dione] | No | – | – | – | – | – | – |
| Cc1cc(Nc2nc(-c3ccccc3)nc3ccccc23)n[nH]1 [(5-Methyl-1H-pyrazol-3-yl)-(2-phenylquinazolin-4-yl)amine] | No | No | No | – | – | – | – |
| CCOc1ccc(C=C2SC(=O)N(CCN)C2=O)cc1.Cl [-(2-Aminoethyl)-5-((4-ethoxyphenyl)methylene)-2,4-thiazolidinedione, HCl] | No | No | No | – | – | – | – |
| COc1ccc(CNC(=O)Nc2ncc([N+](=O)[O-])s2)cc1 [AR-A014418] | No | No | No | – | – | – | – |
| O=C1Nc2cc(Br)ccc2/C1=C1/Nc2ccccc2/C1=N\O [BIO] | – | No | No | – | – | – | – |
| O=C1NC(=O)C(Cc2ccc(OCCN3COc4ccccc4C3=O)cc2)S1 (stereo not drawn) [DRF 2519] | No | No | No | – | – | – | – |
| CC(=O)N[C@@H](CS)C(=O)O [NAC, N-acetyl-cysteine] | – | – | – | – | – | completely blocked the cell death response | – |
| Cn1cc(C2=C(c3ccc(Cl)cc3Cl)C(=O)NC2=O)c2ccccc21 [SB-216763] | No | No | No | – | – | – | – |
| Nc1cccc(-c2cc3c(Oc4cccc(O)c4)ncnc3[nH]2)c1 [TWS119] | No | No | No | – | – | – | – |
| Cc1c(C)c2c(c(C)c1O)CCC(C)(COc1ccc(CC3SC(=O)NC3=O)cc1)O2 (stereo not drawn) [Troglitazone] | – | Yes | Yes | – | – | – | – |
| CC(NC(=O)C(NC(=O)OCc1ccccc1)C(C)C)C(=O)NC(CC(=O)O)C(=O)CF (stereo not drawn) [Z-VAD] (Cbz-Val-Ala-Asp-CH2F; configuration not given here) | – | – | – | – | – | – | no abrogation of death was observed |
